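Where inhibition never reached the appropriate level, the endpoint shown equals the highest concentration tested. Otherwise, values were interpolated linearly from a five-concentration, 48-hour dose response in 96-well plates. At the TGI there is no net growth.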
Assays:
Test in all cases: NCI anticancer screen, dose series, 48 h
[1] = test system: ACHN renal
[2] = test system: NCI-H23 lung
[3] = test system: UACC-62 melanoma
[4] = test system: SK-OV-3 ovarian
[5] = test system: RPMI-8226 leukemia
[6] = test system: TK-10 renal
[7] = test system: 786-0 renal
[8] = test system: M14 melanoma
[9] = test system: SN12C renal
[10] = test system: SNB-19 CNS
[11] = test system: SK-MEL-5 melanoma
[12] = test system: M19-MEL melanoma
[13] = test system: NCI-H226 lung
[14] = test system: MALME-3M melanoma
[15] = test system: SNB-75 CNS
[16] = test system: HCT-116 colon
[17] = test system: CCRF-CEM leukemia
[18] = test system: SF-295 CNS
[19] = test system: UO-31 renal
[20] = test system: LXFL 529 NSCLC
[21] = test system: SK-MEL-2 melanoma
[22] = test system: HT29 colon
[23] = test system: KM12 colon
[24] = test system: HCT-15 colon
[25] = test system: SW-620 colon
[26] = test system: LOX IMVI melanoma
[27] = test system: MOLT-4 leukemia
[28] = test system: IGROV1 ovarian
[29] = test system: COLO 205 colon
[30] = test system: UACC-257 melanoma
[31] = test system: SK-MEL-28 melanoma
[32] = test system: U251 CNS
[33] = test system: DLD-1 colon
[34] = test system: OVCAR-8 ovarian
[35] = test system: EKVX NSCLC
[36] = test system: K-562 leukemia
[37] = test system: KM20L2 colon
[38] = test system: OVCAR-3 ovarian
[39] = test system: XF 498 CNS
[40] = test system: RXF 393 renal
[41] = test system: SNB-78 CNS
[42] = test system: SF-539 CNS
[43] = test system: NCI-H460 lung
[44] = test system: SF-268 CNS
[45] = test system: HOP-62 NSCLC
[46] = test system: OVCAR-4 ovarian
[47] = test system: DMS 114 small cell lung
[48] = test system: A549 NSCLC
[49] = test system: NCI-H522 lung
[50] = test system: HOP-92 NSCLC
[51] = test system: OVCAR-5 ovarian
[52] = test system: HOP-18 NSCLC
[53] = test system: CAKI-1 renal
[54] = test system: DMS 273 small cell lung
[55] = test system: HL-60(TB) leukemia
[56] = test system: SR leukemia
[57] = test system: HCC-2998 colon
[58] = test system: HS 578T breast
[59] = test system: BT-549 breast
[60] = test system: MDA-MB-231 breast
[61] = test system: MCF7 breast
[62] = test system: DU-145 prostate
[63] = test system: MDA-MB-435
[64] = test system: NCI/ADR-RES ovarian
[65] = test system: MDA-N
[66] = test system: T-47D breast
[67] = test system: PC-3 prostate
[68] = test system: A498 renal

## Cn1cc(NC(=O)c2cc(NC(=O)CCCCCCCCCC(=O)Nc3cc(C(=O)Nc4cc(C(=O)NCCC(=N)N)n(C)c4)n(C)c3)cn2C)cc1C(=O)NCCC(=N)N
[1]
  TGI: 73.3 µM
[2]
  TGI: > 100 µM
[3]
  TGI: > 100 µM
[4]
  TGI: > 100 µM
[5]
  TGI: 54.9 µM
[6]
  TGI: 85.9 µM
[7]
  TGI: 93.3 µM
[8]
  TGI: 70.1 µM
[9]
  TGI: > 100 µM
[10]
  TGI: > 100 µM
[11]
  TGI: > 100 µM
[12]
  TGI: > 100 µM
[13]
  TGI: > 100 µM
[14]
  TGI: 26.7 µM
[15]
  TGI: 55.4 µM
[16]
  TGI: > 100 µM
[17]
  TGI: 69.2 µM
[18]
  TGI: 75 µM
[19]
  TGI: > 100 µM
[20]
  TGI: > 100 µM
[21]
  TGI: > 100 µM
[22]
  TGI: 46.2 µM
[23]
  TGI: 31.7 µM
[24]
  TGI: > 100 µM
[25]
  TGI: > 100 µM
[26]
  TGI: 83.5 µM
[27]
  TGI: 82.1 µM
[28]
  TGI: > 100 µM
[29]
  TGI: > 100 µM
[30]
  TGI: > 100 µM
[31]
  TGI: 62.2 µM
[32]
  TGI: > 100 µM
[33]
  TGI: > 100 µM
[34]
  TGI: 83.1 µM
[35]
  TGI: 83.1 µM
[36]
  TGI: > 100 µM
[37]
  TGI: > 100 µM
[38]
  TGI: 35.1 µM
[39]
  TGI: 98.9 µM
[40]
  TGI: > 100 µM
[41]
  TGI: > 100 µM
[42]
  TGI: > 100 µM
[43]
  TGI: > 100 µM
[44]
  TGI: 89.3 µM
[45]
  TGI: 81.3 µM
[46]
  TGI: > 100 µM
[47]
  TGI: > 100 µM
[48]
  TGI: 57.1 µM
[49]
  TGI: > 100 µM
[50]
  TGI: 65.5 µM
[51]
  TGI: 66.4 µM
[52]
  TGI: 96.1 µM
[53]
  TGI: > 100 µM
[54]
  TGI: > 100 µM

## CCCC(=O)Nc1ccc(O)c2c1C1CCCCCC21 (stereo not given)
[1]
  TGI: > 100 µM
[2]
  TGI: > 100 µM
[3]
  TGI: > 100 µM
[55]
  TGI: > 100 µM
[4]
  TGI: > 100 µM
[5]
  TGI: > 100 µM
[6]
  TGI: > 100 µM
[7]
  TGI: > 100 µM
[8]
  TGI: > 100 µM
[9]
  TGI: > 100 µM
[10]
  TGI: > 100 µM
[11]
  TGI: > 100 µM
[12]
  TGI: > 100 µM
[13]
  TGI: > 100 µM
[14]
  TGI: > 100 µM
[15]
  TGI: > 100 µM
[16]
  TGI: > 100 µM
[17]
  TGI: > 100 µM
[18]
  TGI: > 100 µM
[19]
  TGI: > 100 µM
[20]
  TGI: > 100 µM
[21]
  TGI: > 100 µM
[22]
  TGI: > 100 µM
[23]
  TGI: > 100 µM
[24]
  TGI: > 100 µM
[56]
  TGI: > 100 µM
[25]
  TGI: > 100 µM
[26]
  TGI: > 100 µM
[27]
  TGI: > 100 µM
[29]
  TGI: > 100 µM
[30]
  TGI: > 100 µM
[31]
  TGI: > 100 µM
[32]
  TGI: > 100 µM
[34]
  TGI: > 100 µM
[35]
  TGI: > 100 µM
[36]
  TGI: > 100 µM
[37]
  TGI: > 100 µM
[39]
  TGI: > 100 µM
[40]
  TGI: > 100 µM
[41]
  TGI: > 100 µM
[43]
  TGI: > 100 µM
[44]
  TGI: > 100 µM
[45]
  TGI: > 100 µM
[46]
  TGI: > 100 µM
[47]
  TGI: > 100 µM
[48]
  TGI: > 100 µM
[49]
  TGI: > 100 µM
[52]
  TGI: > 100 µM
[54]
  TGI: > 100 µM

## COc1ccc(/C=C2\C(=O)NC(=O)c3ccccc32)cc1OC
[1]
  TGI: > 74.7 µM
[2]
  TGI: > 90.5 µM
[57]
  TGI: > 100 µM
[3]
  TGI: 78.2 µM
[55]
  TGI: 16.2 µM
[4]
  TGI: 81 µM
[5]
  TGI: 47.9 µM
[6]
  TGI: > 100 µM
[7]
  TGI: 44.5 µM
[8]
  TGI: > 100 µM
[58]
  TGI: > 100 µM
[9]
  TGI: > 100 µM
[10]
  TGI: > 93.6 µM
[11]
  TGI: > 94.4 µM
[12]
  TGI: > 100 µM
[13]
  TGI: 99 µM
[14]
  TGI: > 100 µM
[59]
  TGI: > 100 µM
[15]
  TGI: > 87.5 µM
[16]
  TGI: 43.1 µM
[17]
  TGI: 21.9 µM
[18]
  TGI: > 100 µM
[60]
  TGI: > 100 µM
[19]
  TGI: 80 µM
[21]
  TGI: > 94.5 µM
[22]
  TGI: > 100 µM
[61]
  TGI: > 100 µM
[62]
  TGI: > 100 µM
[63]
  TGI: 99.1 µM
[64]
  TGI: > 100 µM
[23]
  TGI: > 100 µM
[24]
  TGI: > 100 µM
[56]
  TGI: 18.9 µM
[25]
  TGI: 46.3 µM
[26]
  TGI: 55.8 µM
[27]
  TGI: 76.6 µM
[28]
  TGI: > 83.2 µM
[65]
  TGI: > 66.8 µM
[29]
  TGI: > 100 µM
[30]
  TGI: > 100 µM
[31]
  TGI: > 100 µM
[32]
  TGI: > 63.5 µM
[33]
  TGI: 19.2 µM
[34]
  TGI: 42.2 µM
[35]
  TGI: > 100 µM
[66]
  TGI: > 100 µM
[36]
  TGI: > 70.9 µM
[37]
  TGI: > 100 µM
[38]
  TGI: > 26.4 µM
[39]
  TGI: 42.5 µM
[40]
  TGI: 33.9 µM
[41]
  TGI: > 66.2 µM
[42]
  TGI: 22.9 µM
[43]
  TGI: 67.4 µM
[44]
  TGI: > 69.9 µM
[45]
  TGI: 58.3 µM
[46]
  TGI: 62.1 µM
[47]
  TGI: 18.4 µM
[67]
  TGI: > 100 µM
[48]
  TGI: > 100 µM
[49]
  TGI: 49.6 µM
[50]
  TGI: 39.8 µM
[51]
  TGI: > 100 µM
[52]
  TGI: > 100 µM
[53]
  TGI: > 100 µM
[54]
  TGI: > 100 µM
[68]
  TGI: > 100 µM
